Molecular target: T1, Ndk (nucleoside diphosphate kinase) (Acinetobacter baumannii, UniProt B0VKS3)
T1 construct: E. coli BL21(DE3), Ni-NTA
T1 sequence (B0VKS3 1-143): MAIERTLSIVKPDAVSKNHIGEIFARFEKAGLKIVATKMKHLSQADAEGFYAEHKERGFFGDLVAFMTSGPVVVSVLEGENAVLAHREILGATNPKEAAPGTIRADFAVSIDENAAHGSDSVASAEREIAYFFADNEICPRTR
Assay: intrinsic tryptophan/tyrosine fluorescence quenching titration (excitation […] nm)
Type: binding
Settings: pH 7 (neutral), 25 °C, 17 µM protein, ATP 20-100 µM

**Q.** `Nc1ncnc2c1ncn2[C@@H]1O[C@H](COP(=O)(O)OP(=O)(O)OP(=O)(O)O)[C@@H](O)[C@H]1O` [ATP] was tested. Which “intrinsic tryptophan/tyrosine fluorescence quenching titration (excitation 280 n)” value did it give?
**A.** Binding of the substrate ATP with the enzyme was confirmed by the quenching of fluorescence

— article PMC3639647, “Cloning, Expression, and Purification of Nucleoside Diphosphate Kinase from Acinetobacter baumannii” (Enzyme Research, 2013)
